# According to patent US20190127797A1, “BIOMARKERS FOR THE DIAGNOSIS OF INFLAMMATION-RELATED DISEASES” (UNIVERSITE DE BORDEAUX, priority 2016, published 2019):
# Key:
# Type in all cases: cell-based, human
# NLRP3 = NLRP3 expression by qPCR in primary monocytes; details: 100 μM, 6 hours, GAPDH-standardized, ratio relative to control
# Procedure: (§1) FIG. 3. High levels of oxidative stress and increased nucleotide metabolites in IMH individuals can induce cytokine production and expression of inflammasome genes in primary monocytes. Broad-coverage metabolomics profiling was conducted on available serum samples from year 2011 (9 IML and 11 IMH individuals). […] Functional annotation and pathway analysis was conducted using MetPA. A significant enrichment for several metabolic pathways was identified for these metabolites (P<0.05) (a). Conversion of cysteine to cystine; and from arachidonic acid to 8-isoprostane, in the presence of ROS (b). Increased circulating levels of cystine and 8-isoprostane in IMH (b and c) indicate higher levels of oxidative stress (c and d). Adenine, DL-4-hydroxy-3-methoxymandelic acid (vanillylmandelate) (MMA), scyllo-inositol and N4-acetylcytidine (N4A) were selected based on their levels of significance (Q<0.001, see Table 5) and representing different metabolic pathways, to assess their ability to induce IL1FC and expression of NLRC4 in primary monocytes from four healthy donors (shown are the results of one representative experiment). Adenosine was used as a positive control. A significant induction of IL1FC is observed for adenosine and adenine, but not with other compounds (e). The highest dose of each compound (100 μM) was used to determine expression of NLRC4 and NLRP3 by qPCR on the same samples used for cytokine determination (e). […] As previously shown in mice, adenosine treatment up-regulates NLRP3 gene expression (P<0.01) (f). Expression of GAPDH was used to standardize the samples, and the results are expressed as a ratio relative to control. Error bars reflect experimental variability.
# (§2) The dysfunction in nucleotide metabolism and in mitochondrial bioenergetics described above may explain the generation of circulating metabolites and chronic oxidative stress, respectively. To study whether the circulating metabolites found in higher levels in the sera from IMH compared to IML subjects up-regulate NLRC4 gene expression and/or cytokine production, four candidate compounds identified from our analysis were selected. They represent distinct metabolic pathways. These included adenine (purine metabolism), DL-4-hydroxy-3-methoxymandelic acid (vanillylmandelate) (phenylalanine and tyrosine metabolism), scyllo-inositol (inositol metabolism) and N4-acetylcytidine (N4A) (pyrimidine metabolism) (Table 5). Adenosine was included as a positive control for IL1FC production. Primary monocytes from four healthy donors were isolated from fresh […] blood and incubated with increasing concentrations of the indicated compounds for 6 hours. […] We also tested whether these stimulations lead to changes in the expression of NLRC4 and NLRP3 (used as a positive control for adenosine stimulation). […] More biochemical studies are necessary to address this.
# (§3) Adenosine, adenine, DL-4-hydroxy-3-methoxymandelic acid, scyllo-inositol were all purchased form Sigma (Sigma-Aldrich, St. Louis, Mo.) and N4-acetylcytidine was purchased from Santa Cruz Biotechnology (Dallas, Tex.). Compounds were tested at the indicated concentrations on isolated monocytes from a healthy donor. […] Samples were then transferred to the Human Immune Monitoring Core at Stanford for quantification of cytokines, chemokines and growth factors using the 63-plex Luminex system, as described above. […]
# NLRC4 = NLRC4 expression by qPCR in primary monocytes; details: 100 μM, 6 hours, GAPDH-standardized, ratio relative to control
# Procedure: as §1, §2, §3
# [1] = system: differentiated THP-1 cells; test: Cytokine secretion (ELISA) from differentiated THP-1 cells; details: 6 hr; for production of IL-1β / production of IL-18 / production of TNF-α: without ATP pulse
# Procedure: FIG. 4. N4-Acetylcytidine and Adenine induce the NLRC4 inflammasome. (a) Differentiated THP-1 cells were treated with ATP (5 mM, 30 min), or primed with LPS (1 μg/ml, 4 hr) and then pulsed with ATP; or treated with indicated concentrations (mM) of Adenine (Ad) or N4-Acetylcytidine (N4A) alone for 6 hr or (b) in combination, and then pulsed or not with ATP. Secretion of cytokines IL-1β, IL-18 and TNF-α were measured by ELISA from cell culture supernatants. (c) Differentiated THP-1 cells were treated with compounds as indicated (1 mM N4A; 300 μM Ad) for 6 hr or ATP 5 mM 30 min, cells were lysed and cell lysates were then immunoblotted with various antibodies to monitor expression of NLRs, Casp1, and prolL-1β. (d) Differentiated THP-1 cells were treated with compounds as before and cell lysates were submitted to immunoprecipitation with Biotinyl-YVAD-fmk peptide. Complexes were then recovered by using Streptavidin-sepharose beads and immunoblotted with anti-Caspase-1 p10 antibody. (e) Differentiated THP-1 cells were treated with compounds as before in the presence or not of Ac-YVAD-fmk or control DMSO, and IL-1β secretion was measured. (f) Differentiated WT or stable shTHP-1 cell lines were treated with compounds as before (1 mM N4A; 300 μM Ad) and IL-1β secretion was measured. To the right, western-blots showing protein expression of NLRC4 in stable shTHP-1 cell lines. (g) Bone marrow-derived macrophages from WT or KO mice as indicated were isolated and treated with combination of compounds (1 mM N4A; 300 μM Ad), and IL-1β secretion was measured. Data are expressed as concentration of cytokines (pg/ml) (mean±SD; n=3). * P<0.05, ** P<0.01.
# In parallel experiments, differentiated THP-1 cells and a human monocytic cell Line were treated to address whether the metabolites N4A and adenine, alone or in combination, could induce inflammasome activation and cytokine secretion in vitro.
# Adult male mice (12-18 week old) were divided into two groups: PBS or compound treated-mice (N4-Acetylcytidine+Adenine dissolved in PBS). Compound-treated mice were injected with N4-Acetylcytidine and Adenine (stock solution 20 mM each, 100 ul/25 g body weight, retro-orbital injection, once daily) or PBS. After 3 weeks of treatment, while they continued receiving daily injections of PBS or N4A+Adenine, mice from both groups were administered an infusion of human angiotensin II (AngII, #A9525, Sigma-Aldrich, St. Louis, Mo.) for another 2 weeks. Angll (140 ng/kg per min) was dissolved in 100 ul 20 mM (N4A+Adenine) or in 100 ul PBS and loaded into a small osmotic pump (Durect Corporation, Cupertino, Calif., USA). The osmotic pump was then implanted subcutaneously on the dorsal side around the neck of mice under anesthesia ([…]). Systolic blood pressure was measured every other day in conscious mice using tail-cuff plethysmography (Vistech System BP-2000, Apex, N.C., USA). Experiments with human THP-1 cells and primary blood platelets THP-1 monocytic cell lines were cultured in 6-well plates in RPMI media (supplemented with 10% Fetal Bovine Serum) and differentiated overnight with TPA (10 ng/ml). The day after, adherent cells were washed with fresh media and treated with agonists LPS ([…], 4 hrs) and ATP (5 mM, 30 min) or compounds Adenine/N4-Acetylcytidine at various concentrations.
# primary neutrophils = test: Primary neutrophil activation (RANKL, degranulation, IL-1β secretion); details: 24 hr, various concentrations
# Procedure: (b) Primary neutrophils were isolated from blood of healthy donors and incubated for 24 hr with various concentrations of adenine or N4A alone or in combination, and RANK-L+ cells were determined within the CD66b+ population. (c) Primary neutrophils were treated with N4A (1 mM) and/or adenine (1 mM) and the % of degranulated population was measured for each donor. (d) Primary neutrophils were treated as before with compounds as indicated and IL-1β secretion was measured from cell culture supernatants for each donor. Data are expressed as concentration of cytokines (pg/ml), or as fold increase with respect to non-treated (NT) condition as indicated. * P<0.05, ** P<0.01
# In addition, the frequencies of 22 different cell subsets in IMH and IML older adults (N=22) were estimated and in a separate analysis, such frequencies were compared between young and older adults (N=86). For these analyses Cibersort (Newman et al. Robust enumeration of cell subsets from tissue expression profiles. Nature Methods 12, 453-457, 2015) was used, which uses gene expression profiles to characterize cell subset composition in complex tissues, such as whole blood. Significant differences were found in the estimated frequencies of circulating mast cells, as well as in the CD4 T regulatory cell compartment between young and older adults (P<0.01). […]
# primary platelets = test: Platelet activation, CD61/CD62P membrane expression by flow cytometry; details: platelets of two healthy donors, 6 hrs at 37° C., various concentrations, CD61 and CD62P+
# Procedure: Primary platelets were isolated from the blood of two donors and incubated for 6 hr at 37° C. with thrombin, or ADP, or various concentrations of Adenine or N4-Acetylcytidine. Platelet activation was monitored by measuring membrane expression of CD61 and CD62P by flow cytometry. Data are representative of at least three independent experiments with similar results. […] Thus, it was sought to determine whether [MUT] and adenine were able to activate human platelets in vitro. To do so, platelets were isolated from the blood of two healthy donors and incubated for 6 hrs at 37° C. with various concentrations of adenine or [MUT]. Thrombin, and ADP were used as controls and platelet activation was monitored by measuring membrane expression of CD61 and CD62P+ cells by flow cytometry. […] Human primary platelets were prepared from whole blood using a venepuncture in EDTA tube after a 20 min centrifugation at 1000 rpm without acceleration and break. Then the supernatant was harvested and 1 μM PGE1 was added. […] Platelets were then stimulated with thrombin (at 0.5 U/ml), ADP, or with the indicated concentrations of [MUT] or adenine, and activation was monitored by flow cytometry using 25 immunostaining of membrane markers with anti-CD61 (marker of platelet population), and anti-CD62-P (marker of activation involved in aggregation).
# primary monocytes = test: IL1FC (IL-1α, IL-1β) production in primary monocytes treated with metabolites; details: primary monocytes from four healthy donors, increasing concentrations, 6 hours
# Procedure: as §1
# The dysfunction in nucleotide metabolism and in mitochondrial bioenergetics described above may explain the generation of circulating metabolites and chronic oxidative stress, respectively. To study whether the circulating metabolites found in higher levels in the sera from IMH compared to IML subjects up-regulate NLRC4 gene expression and/or cytokine production, four candidate compounds identified from our analysis were selected. They represent distinct metabolic pathways. […]
# as §3, with “Tex.).” for “Tex.). Compounds were tested at the indicated concentrations on isolated monocytes from a healthy donor.”
# [2] = then pulsed with ATP (5 mM, 30 min)
structure (smiles),measurement,setting,value
COc1cc(C(O)C(=O)O)ccc1O (racemic) [DL-4-hydroxy-3-methoxymandelic acid],expression of NLRP3,NLRP3,No effect
same,expression of NLRC4,NLRC4,No effect
"CC(=O)Nc1ccn([C@@H]2O[C@H](CO)[C@@H](O)[C@H]2O)c(=O)n1 [N4A, N4-acetylcytidine]",expression of NLRP3,NLRP3,induced both NLRP3 and NLRC4
same,secretion of IL-1β,[1]; [2],potently induced secretion
same,secretion of IL-18,[1]; [2],potently induced secretion
same,production of IL-1β,[1],neither incubation with adenine nor with N4A alone had an effect
same,production of IL-18,[1],neither incubation with adenine nor with N4A alone had an effect
same,production of TNF-α,[1],neither incubation with adenine nor with N4A alone had an effect
same,expression of NLRC4,NLRC4,induced both NLRP3 and NLRC4
Nc1ncnc2[nH]cnc12 [adenine],RANKL+ cells within the CD66b population,primary neutrophils,induced a potent increase
same,expression of NLRP3,NLRP3,No effect
same,production of IL-1β,[1],neither incubation with adenine nor with N4A alone had an effect
same,production of IL-18,[1],neither incubation with adenine nor with N4A alone had an effect
same,production of TNF-α,[1],neither incubation with adenine nor with N4A alone had an effect
same,expression of NLRC4,NLRC4,No effect
same,percentage of activated platelets,primary platelets,robustly induced a dose-dependent increase
same,IL-1α production,primary monocytes,significant increase
same,IL-1β production,primary monocytes,significant increase
"Nc1ncnc2c1ncn2[C@@H]1O[C@H](CO)[C@@H](O)[C@H]1O [adenosine, reference compound]",expression of NLRP3,NLRP3,increased expression of NLRP3
same,expression of NLRC4,NLRC4,no increase in NLRC4 was observed
same,IL-1α production,primary monocytes,significant increase
same,IL-1β production,primary monocytes,significant increase
O[C@H]1[C@H](O)[C@@H](O)[C@H](O)[C@@H](O)[C@@H]1O [scyllo-inositol],expression of NLRP3,NLRP3,No effect
same,expression of NLRC4,NLRC4,No effect
